We go through 30 compounds from patent publication US8389500B2, “Fused heterocyclic compounds as ion channel modulators” (Gilead Sciences, Inc., priority 2008, dated 2013).

In the first test the target is T1, wild-type human cardiac sodium channel, hNav1.5 (late sodium current) (Homo sapiens, UniProt Q14524).
T1 construct: host or cells: HEK293
T1 sequence (Q14524 whole entry): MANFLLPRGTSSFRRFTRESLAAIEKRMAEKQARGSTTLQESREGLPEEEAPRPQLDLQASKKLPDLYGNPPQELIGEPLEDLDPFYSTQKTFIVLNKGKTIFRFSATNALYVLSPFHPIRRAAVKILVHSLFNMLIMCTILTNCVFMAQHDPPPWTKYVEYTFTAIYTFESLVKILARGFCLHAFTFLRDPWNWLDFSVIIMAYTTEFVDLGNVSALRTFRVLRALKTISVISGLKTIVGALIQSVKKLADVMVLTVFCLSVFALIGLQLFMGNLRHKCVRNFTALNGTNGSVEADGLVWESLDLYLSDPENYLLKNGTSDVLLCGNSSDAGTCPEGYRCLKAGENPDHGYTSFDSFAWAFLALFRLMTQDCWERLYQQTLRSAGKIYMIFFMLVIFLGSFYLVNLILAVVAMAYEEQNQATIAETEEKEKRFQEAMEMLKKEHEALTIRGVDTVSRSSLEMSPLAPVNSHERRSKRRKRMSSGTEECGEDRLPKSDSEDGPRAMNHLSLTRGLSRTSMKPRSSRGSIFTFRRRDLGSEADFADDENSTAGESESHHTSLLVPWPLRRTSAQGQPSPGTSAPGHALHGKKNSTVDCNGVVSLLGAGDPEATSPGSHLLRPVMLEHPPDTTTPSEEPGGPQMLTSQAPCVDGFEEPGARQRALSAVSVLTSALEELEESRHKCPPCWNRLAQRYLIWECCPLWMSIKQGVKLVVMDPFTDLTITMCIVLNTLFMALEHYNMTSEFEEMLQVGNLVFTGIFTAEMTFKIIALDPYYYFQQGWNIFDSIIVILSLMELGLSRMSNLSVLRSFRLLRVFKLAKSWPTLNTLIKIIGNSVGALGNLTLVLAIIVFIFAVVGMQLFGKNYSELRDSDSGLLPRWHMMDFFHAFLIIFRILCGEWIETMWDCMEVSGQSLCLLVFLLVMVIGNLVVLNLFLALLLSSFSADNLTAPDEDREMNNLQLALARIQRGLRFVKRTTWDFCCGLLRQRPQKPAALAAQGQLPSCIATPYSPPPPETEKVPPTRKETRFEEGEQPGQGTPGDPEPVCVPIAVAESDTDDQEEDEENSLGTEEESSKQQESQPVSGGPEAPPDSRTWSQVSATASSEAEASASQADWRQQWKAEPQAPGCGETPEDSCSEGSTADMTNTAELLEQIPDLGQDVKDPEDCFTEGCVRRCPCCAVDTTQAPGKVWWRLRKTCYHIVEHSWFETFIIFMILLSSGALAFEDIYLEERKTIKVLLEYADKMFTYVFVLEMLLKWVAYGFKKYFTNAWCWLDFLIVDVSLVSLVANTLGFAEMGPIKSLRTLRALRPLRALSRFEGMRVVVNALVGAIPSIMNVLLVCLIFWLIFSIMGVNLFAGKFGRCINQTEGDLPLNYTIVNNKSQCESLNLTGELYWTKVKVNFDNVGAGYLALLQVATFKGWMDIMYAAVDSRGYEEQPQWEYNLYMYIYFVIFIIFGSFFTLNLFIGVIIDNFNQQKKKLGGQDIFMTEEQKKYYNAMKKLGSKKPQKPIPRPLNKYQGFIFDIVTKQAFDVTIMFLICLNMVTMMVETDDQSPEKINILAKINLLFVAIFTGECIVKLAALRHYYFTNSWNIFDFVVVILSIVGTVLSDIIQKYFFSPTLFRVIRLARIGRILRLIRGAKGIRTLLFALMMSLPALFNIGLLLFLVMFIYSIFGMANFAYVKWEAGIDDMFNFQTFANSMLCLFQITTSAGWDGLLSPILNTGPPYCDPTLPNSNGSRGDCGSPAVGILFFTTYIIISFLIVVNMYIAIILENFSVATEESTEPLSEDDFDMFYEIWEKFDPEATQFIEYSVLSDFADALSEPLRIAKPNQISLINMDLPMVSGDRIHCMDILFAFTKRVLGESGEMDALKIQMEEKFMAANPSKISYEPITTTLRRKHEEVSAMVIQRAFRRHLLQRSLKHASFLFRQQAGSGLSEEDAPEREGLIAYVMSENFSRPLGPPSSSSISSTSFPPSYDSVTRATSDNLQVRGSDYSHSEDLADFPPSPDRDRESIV
Description: Late INa screening assay (PatchXpress whole cell patch clamp). The test is classed as cell-based. The settings on record: 1 μM test compound; HEK293 hNav1.5; late INa generated with 10 μM Tefluthrin (some experiments 50 nM ATX II); read-out: Late INa % blk (1 μM test cmpd). The procedure:
The late sodium current (Late INa) and peak sodium current (Peak INa) assays are performed on an automated electrophysiology platform, PatchXpress 7000A (MDS Analytical Technologies, Sunnyvale, Calif.), which uses the whole cell patch clamp technique to measure currents through the cell membrane of up to 16 cells at a time. The assay uses an HEK293 (human embryonic kidney) cell line heterologously expressing the wild-type human cardiac sodium channel, hNav1.5, purchased from Millipore (Billerica, Mass.). No beta subunits were coexpressed with the Na channel alpha subunit. Cells are maintained with standard tissue culture procedures and stable channel expression is maintained with 400 μg/ml Geneticin in the culture medium. […] Experiments are carried out at 24-27° C.
For both the Late INa and Peak INa assays, series resistance compensation is set to 50% and whole-cell compensation is performed automatically. […] Currents through open sodium channels are automatically recorded and stored in the DataXpress2 database (MDS Analytical Technologies, Sunnyvale, Calif.). Analysis is performed using DataXpress2 analysis software and data are compiled in Excel.
Compound stocks are routinely made in glass vials to 10 mM in dimethyl sulfoxide (DMSO). In some cases, when compounds are not soluble in DMSO, they are made in 100% ethanol. Stocks are sonicated as necessary. The extracellular solution for screening Late INa is composed of: 140 mM NaCl, 4 mM KCl, 1.8 mM CaCl2, 0.75 mM MgCl2, and 5 mM HEPES with pH adjusted to 7.4 using NaOH. The extracellular solution for screening Peak INa is composed of: 20 mM NaCl, 120 mM N-methyl-D glucamine, 4 mM KCl, 1.8 mM CaCl2, 0.75 mM MgCl2, and 5 mM HEPES with pH adjusted to 7.4 using HCl. The intracellular solution used to perfuse the inside of the cells for both the Late INa and Peak INa assays contains: 120 mM CsF, 20 mM CsCl, 5 mM EGTA, 5 mM HEPES and pH adjusted to 7.4 with CsOH. […] The 0Na extracellular solution used at the end of each experiment for the Late INa and Peak INa assays to measure baseline current contains: 140 mM N-methyl-D-glucamine; 4 mM KCl; 1.8 mM CaCl2; 0.75 mM MgCl2; 5 mM HEPES and pH was adjusted to 7.4 with HCl.
For the Late INa assay, sodium channels are activated every 10 seconds (0.1 Hz) by depolarizing the cell membrane to −20 mV for 250 milliseconds (ms) from a holding potential of −120 mV. In response to a −20 mV voltage step, typical Nav1.5 sodium currents activate rapidly to a peak negative current and then inactivate nearly completely within […].
All compounds are tested to determine their activity in blocking the late sodium current. Late INa current is generated by adding 10 μM Tefluthrin (pyrethroid) to the extracellular solution while recording Na currents For some experiments, 50 nM ATX II (sea anemone toxin), another late Na activator, was used to generate the late component. […] After establishing the whole cell recording configuration, late INa activators are added to each well 4 times over a 16-17 minute period so that the late component of the Na current reaches a stable value. […] Measurements are made at the end of exposure to the third compound addition and values are normalized to the current level when all Na^+ is removed from the extracellular solution after two additions of ONa-ECF. Results are reported as percent block of late INa
Take `CS(=O)(=O)N(CCN1CCCCC1)c1ccc(-c2ccc(Cl)c(F)c2)c(Cl)c1` [PT-062, N-(2,4′-dichloro-3′-fluorobiphenyl-4-yl)-N-[2-(piperidin-1-yl)ethyl]methanesulfonamide]: the inhibition at 1 µM stood at 25.7%. Consider `CS(=O)(=O)Nc1ccc(-c2cc(C(F)(F)F)cc(C(F)(F)F)c2)c(Cl)c1` [PT-065, N-[2-chloro-3′,5′-bis(trifluoromethyl)biphenyl-4-yl]methanesulfonamide], for which the inhibition at 1 µM turned out to be 27.8%.

The test is the same for the next values; noted with them: 10 μM test compound; HEK293 hNav1.5; late INa generated with 10 μM Tefluthrin (some experiments 50 nM ATX II); read-out: Late INa % blk (10 μM test cmpd).
For `CS(=O)(=O)Nc1ccc(-c2ccc(OC(F)(F)F)cc2)cc1OC(F)(F)F` [PT-099, N-[3,4′-bis(trifluoromethoxy)biphenyl-4-yl]methanesulfonamide], the inhibition at 10 µM is 8.9%. Same read-out and setting: under `CC(C)Oc1ccc(-c2ccc(NS(=O)(=O)C3CC3)c(C#N)c2)cc1` [PT-152, N-(3-cyano-4′-isopropoxybiphenyl-4-yl)cyclopropanesulfonamide] stands 29%; under `COC(=O)c1cc(-c2ccc(Oc3ccccc3)cc2)ccc1NS(C)(=O)=O` [PT-118, methyl 4-[(methylsulfonyl)amino]-4′-phenoxybiphenyl-3-carboxylate], 40.8%. As to `O=S(=O)(Nc1ccc(-c2ccc(Oc3ccccc3)cc2)cc1)C1CC1` [PT-072, N-(4′-phenoxybiphenyl-4-yl)cyclopropanesulfonamide], the inhibition at 10 µM came out at 35.6%. As for `O=S(=O)(Nc1ccc(-c2ccc(Oc3ccccc3)cc2)cc1OC(F)(F)F)C1CC1` [PT-114, N-[4′-phenoxy-3-(trifluoromethoxy)biphenyl-4-yl]cyclopropanesulfonamide], the inhibition at 10 µM was found to be 14.1%. With `CC(C)(C)OC(=O)CN(c1ccc(-c2cccc(OC(F)(F)F)c2)c(F)c1)S(C)(=O)=O` [PT-101, tert-butyl N-[2-fluoro-3′-(trifluoromethoxy)biphenyl-4-yl]-N-(methylsulfonyl)glycinate], the inhibition at 10 µM stood at 72.9%. Consider `CS(=O)(=O)N(CCN1CCOCC1)c1ccc(-c2ccc(Cl)c(F)c2)c(Cl)c1` [PT-061, N-(2,4′-dichloro-3′-fluorobiphenyl-4-yl)-N-[2-(morpholin-4-yl)ethyl]methanesulfonamide], for which the inhibition at 10 µM was 20.6%. `Cc1cc(-c2ccc(Oc3ccccc3)cc2)c(Cl)cc1N(CC(=O)O)S(C)(=O)=O` [PT-106, N-(2-chloro-5-methyl-4′-phenoxybiphenyl-4-yl)-N-(methylsulfonyl)glycine]: the inhibition at 10 µM is 42%. The same measure, in the same setting: the figure for `CCOC(=O)c1ccc(CN(c2ccc(-c3ccc(OC(C)C)cc3)c(C)c2)S(C)(=O)=O)cc1` [PT-145, ethyl 4-((N-(4′-isopropoxy-2-methylbiphenyl-4-yl)methylsulfonamido)methyl)benzoate] is 17.1%; for `CS(=O)(=O)N(CCN1CCCCC1)c1ccc(-c2ccc(Cl)c(F)c2)c(Cl)c1` [PT-062, N-(2,4′-dichloro-3′-fluorobiphenyl-4-yl)-N-[2-(piperidin-1-yl)ethyl]methanesulfonamide] it is 74.8%; for `CS(=O)(=O)Nc1ccc(-c2cc(C(F)(F)F)cc(C(F)(F)F)c2)c(Cl)c1` [PT-065, N-[2-chloro-3′,5′-bis(trifluoromethyl)biphenyl-4-yl]methanesulfonamide] it is 85.6%.

As for `CS(=O)(=O)Nc1cccc(-c2ccc(Oc3ccc(C(=O)O)cc3)cc2)c1` [PT-131, 4-(3′-(methylsulfonamido)biphenyl-4-yloxy)benzoic acid], the inhibition at 10 µM is 20.8%.

`Cc1cc(N(Cc2ccc(CC(=O)O)cc2)S(=O)(=O)C2CC2)ccc1-c1ccc(Oc2ccccc2)cc1` [PT-133, 2-(4-((N-(2-methyl-4′-phenoxybiphenyl-4-yl)cyclopropanesulfonamido)methyl)phenyl)acetic acid]: the inhibition at 10 µM came out at 34.1%. On the same count and under the same terms, the figure for `CS(=O)(=O)Nc1ccc(-c2cccc(F)c2)c(Cl)c1` [PT-052, N-(2-chloro-3′-fluorobiphenyl-4-yl)methanesulfonamide] is 50.1%; for `CS(=O)(=O)Nc1ccc(-c2ccc(OC(F)(F)F)cc2)c(C(F)(F)F)c1` [PT-014, N-[4′-(trifluoromethoxy)-2-(trifluoromethyl)biphenyl-4-yl]methanesulfonamide] it is 50.5%; for `CS(=O)(=O)Nc1ccc(-c2ccc(Cl)c(F)c2)cc1` [PT-005, N-(4′-chloro-3′-fluorobiphenyl-4-yl)methanesulfonamide] it is 20.5%. Still for that read-out and setting: the figure for `CS(=O)(=O)N(Cc1nn[nH]n1)c1ccc(-c2ccc(Cl)c(F)c2)c(Cl)c1` [PT-064, N-(2,4′-dichloro-3′-fluorobiphenyl-4-yl)-N-(2H-tetrazol-5-ylmethyl)methanesulfonamide] is 30.5%; for `Cc1cc(N([C@@H](C)C(=O)O)S(C)(=O)=O)ccc1-c1ccc(Oc2ccccc2)cc1` [PT-105, N-(2-methyl-4′-phenoxybiphenyl-4-yl)-N-(methylsulfonyl)alanine] it is 5.8%; for `CCOC(=O)CN(c1ccc(-c2cccc(OC(F)(F)F)c2)c(OC)c1)S(C)(=O)=O` [PT-020, ethyl N-[2-methoxy-3′-(trifluoromethoxy)biphenyl-4-yl]-N-(methylsulfonyl)glycinate] it is 52.9%. Turning to `N#Cc1cc(NS(=O)(=O)C2CC2)ccc1-c1ccc(Oc2ccccc2)cc1` [PT-124, N-(2-cyano-4′-phenoxybiphenyl-4-yl)cyclopropanesulfonamide], the inhibition at 10 µM worked out at 32.2%. Same read-out and setting: the figure for `COc1cc(NS(C)(=O)=O)ccc1-c1ccc(C(F)(F)F)cc1` [PT-004, N-[2-methoxy-4′-(trifluoromethyl)biphenyl-4-yl]methanesulfonamide] is 42.8%; for `CS(=O)(=O)Nc1ccc(-c2cccc(C(F)(F)F)c2)cc1OC(F)(F)F` [PT-076, N-[3-(trifluoromethoxy)-3′-(trifluoromethyl)biphenyl-4-yl]methanesulfonamide] it is 18.7%; for `N#Cc1cc(-c2ccc(Oc3ccccc3)cc2)ccc1NS(=O)(=O)C1CC1` [PT-115, N-(3-cyano-4′-phenoxybiphenyl-4-yl)cyclopropanesulfonamide] it is 61.8%. The same measure, in the same setting: under `Cc1cc(N(Cc2ccc(C(=O)O)cc2)S(C)(=O)=O)ccc1-c1ccc(OC(C)C)cc1` [PT-146, 4-((N-(4′-isopropoxy-2-methylbiphenyl-4-yl)methylsulfonamido)methyl)benzoic acid] stands 3.65%; under `Cc1cc(NS(C)(=O)=O)ccc1-c1ccc(F)c(F)c1` [PT-057, N-(3′,4′-difluoro-2-methylbiphenyl-4-yl)methanesulfonamide], 35.9%; under `COc1ccc(NS(C)(=O)=O)cc1-c1ccc(Cl)c(F)c1` [PT-110, N-(4′-chloro-3′-fluoro-6-methoxybiphenyl-3-yl)methanesulfonamide], 39.9%. On the same count and under the same terms, the figure for `CS(=O)(=O)N(Cc1ccc(C(=O)O)cc1)c1cccc(-c2ccc(C(F)(F)F)c(F)c2)c1` [PT-154, 4-((N-(3′-fluoro-4′-(trifluoromethyl)biphenyl-3-yl)methylsulfonamido)methyl)benzoic acid] is 7%; for `CS(=O)(=O)Nc1ccc(-c2ccc(F)c(Cl)c2)cc1Cl` [PT-030, N-(3,3′-dichloro-4′-fluorobiphenyl-4-yl)methanesulfonamide] it is 41.4%. Turning to `CS(=O)(=O)Nc1ccc(-c2ccc(OC(F)(F)F)cc2)c(F)c1` [PT-078, N-[2-fluoro-4′-(trifluoromethoxy)biphenyl-4-yl]methanesulfonamide], the inhibition at 10 µM amounted to 49.1%. `O=C(NCCO)c1cc(-c2ccc(C(F)(F)F)cc2)ccc1NS(=O)(=O)C1CC1` [PT-162, 4-(cyclopropanesulfonamido)-N-(2-hydroxyethyl)-4′-(trifluoromethyl)biphenyl-3-carboxamide]: the inhibition at 10 µM is -5.3%.
